# From the supplement of paper PMC11061612
# Columns and labels:
# [1] = test system: RS4-11 (B-Lymphoblastic Leukemia); assay: Bliss excess, mean over the matrix (fraction); higher = more synergy
# Summary of the method: (§1)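 Cell lines in DMEM/F12 or RPMI with 10% FBS were plated in 1536-well plates, held 24 hours at 37°C, 5% CO2, then given two-drug dose matrices for 72 hours (DMSO typically 0.2%). Viability was read by CellTiter-Glo 2.0 luminescence and scaled as inhibition from 0 (vehicle wells) to 1 (blank wells). Combination Emax is the second-highest inhibition in the matrix; Bliss excess is observed combination effect minus expected EA + EB − EA·EB, EA and EB being single-agent effects.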
# [2] = test system: NCI-H1048 (Small Cell Lung Carcinoma); assay: as above
# Summary of the method: as §1
# [3] = test system: NCI-H1975 (Lung Adenocarcinoma); assay: as above
# Summary of the method: as §1
# [4] = test system: NTERA-2-cl-D1 (Other Solid Carcinomas); assay: as above
# Summary of the method: as §1
# GCIY (Gastric Carcinoma) = assay: as above
# Summary of the method: as §1
# [5] = test system: C2BBe1 (Colorectal Carcinoma); assay: as above
# Summary of the method: as §1
# [6] = test system: JURL-MK1 (Chronic Myelogenous Leukemia); assay: as above
# Summary of the method: as §1
# [7] = test system: HT-1197 (Bladder Carcinoma); assay: as above
# Summary of the method: as §1
# RVH-421 (Melanoma) [8] = assay: as above
# Summary of the method: as §1
# [9] = test system: TK (B-Cell Non-Hodgkin's Lymphoma); assay: as above
# Summary of the method: as §1
# [10] = test system: SCC90 (Head and Neck Carcinoma); assay: as above
# Summary of the method: as §1
# MG-63 (Osteosarcoma) = assay: as above
# Summary of the method: as §1
# [11] = test system: COR-L105 (Lung Adenocarcinoma); assay: as above
# Summary of the method: as §1
# [12] = test system: SW1463 (Colorectal Carcinoma); assay: as above
# Summary of the method: as §1
# [13] = test system: L-363 (Plasma Cell Myeloma); assay: as above
# Summary of the method: as §1
# [14] = test system: MRK-nu-1 (Breast Carcinoma); assay: as above
# Summary of the method: as §1
# RVH-421 (Melanoma) [15] = assay: combination Emax (second highest fraction inhibited in the dose matrix, 72 h); higher = more inhibition; extreme values may be limits of the assay
# Summary of the method: as §1
# [16] = test system: NCI-H835 (Other Solid Carcinomas); assay: Bliss excess, mean over the matrix (fraction); higher = more synergy
# Summary of the method: as §1
# 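Wherever Bliss excess, mean over the matrix is given: after 72 h of two-drug dosing.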
Structure (SMILES),Bliss excess [1],Bliss excess [2],Bliss excess [3],Bliss excess [4],Bliss excess (GCIY (Gastric Carcinoma)),Bliss excess [5],Bliss excess [6],Bliss excess [7],Bliss excess (RVH-421 (Melanoma) [8]),Bliss excess [9],Bliss excess [10],Bliss excess (MG-63 (Osteosarcoma)),Bliss excess [11],Bliss excess [12],Bliss excess [13],Bliss excess [14],combination Emax (RVH-421 (Melanoma) [15]),Bliss excess [16]
"CC1(C)CCC(CN2CCN(c3ccc(C(=O)NS(=O)(=O)c4ccc(NCC5CCOCC5)c([N+](=O)[O-])c4)c(Oc4cnc5[nH]ccc5c4)c3)CC2)=C(c2ccc(Cl)cc2)C1 [Venetoclax] + CCN(CCO)CCCOc1ccc2c(Nc3cc(CC(=O)Nc4cccc(F)c4)[nH]n3)ncnc2c1 [AZD2811] (first compound max 1 µM, 7x7, partner max 1 µM)",0.003,0.103,-0.0555,0.0826,-0.0468,-0.0368,0.0208,-0.0204,-0.0636,0.0051,0.169,-0.0699,-0.0608,-0.0389,0.0141,0.0341,0.164,–
"CC1(C)CCC(CN2CCN(c3ccc(C(=O)NS(=O)(=O)c4ccc(NCC5CCOCC5)c([N+](=O)[O-])c4)c(Oc4cnc5[nH]ccc5c4)c3)CC2)=C(c2ccc(Cl)cc2)C1 [Venetoclax] + Cn1cnc2c(F)c(Nc3ccc(Br)cc3Cl)c(C(=O)NOCCO)cc21 [Selumetinib] (first compound max 1 µM, 7x7, partner max 3 µM)",0.0052,-0.0067,-0.0631,-0.0415,-0.12,-0.102,-0.0249,-0.0072,-0.0317,-0.0251,0.161,-0.0292,-0.0491,-0.0631,0.0023,-0.0139,0.385,–
"CC1(C)CCC(CN2CCN(c3ccc(C(=O)NS(=O)(=O)c4ccc(NCC5CCOCC5)c([N+](=O)[O-])c4)c(Oc4cnc5[nH]ccc5c4)c3)CC2)=C(c2ccc(Cl)cc2)C1 [Venetoclax] + C=CCn1c(=O)c2cnc(Nc3ccc(N4CCN(C)CC4)cc3)nc2n1-c1cccc(C(C)(C)O)n1 [AZD1775] (first compound max 1 µM, partner max 1 µM)",0.0174,0.0212,-0.0143,-0.0202,0.111,0.0124,-0.0214,-0.001,-0.0875,0.0168,-0.0466,-0.0048,-0.0095,-0.0942,0.0933,-0.0341,0.183,–
"C=CCn1c(=O)c2cnc(Nc3ccc(N4CCN(C)CC4)cc3)nc2n1-c1cccc(C(C)(C)O)n1 [AZD1775] + C[C@@H]1COCCN1C2=NC(=NC(=C2)C3(CC3)[S@](=N)(=O)C)C4=C5C=CNC5=NC=C4 [AZD6738] (first compound max 1 µM, partner max 10 µM)",0.0188,0.0582,0.0451,0.0123,0.0091,0.0278,0.0515,-0.0057,-0.0495,0.0031,0.0167,0.0271,-0.0411,-0.0807,0.0474,0.0633,0.213,–
"Cc1c2c(nn1C)CSCc1cc(n(C)n1)CSc1cc(c3ccccc3c1)OCCCc1c(C(=O)O)n(C)c3c-2c(Cl)ccc13 [AZD5991] + C1CN(CCC1(C(=O)N[C@@H](CCO)C2=CC=C(C=C2)Cl)N)C3=NC=NC4=C3C=CN4 [Capivasertib] (first compound max 1 µM, 7x7, partner max 3 µM)",-0.0148,0.0267,0.0322,–,0.0118,-0.0214,0.0028,-0.0002,-0.0513,-0.0039,-0.0533,-0.0384,-0.0019,-0.0085,0.0476,0.0055,0.411,–
"Cc1c2c(nn1C)CSCc1cc(n(C)n1)CSc1cc(c3ccccc3c1)OCCCc1c(C(=O)O)n(C)c3c-2c(Cl)ccc13 [AZD5991] + CC1(C)CCC(CN2CCN(c3ccc(C(=O)NS(=O)(=O)c4ccc(NCC5CCOCC5)c([N+](=O)[O-])c4)c(Oc4cnc5[nH]ccc5c4)c3)CC2)=C(c2ccc(Cl)cc2)C1 [Venetoclax] (first compound max 1 µM, 7x7, partner max 1 µM)",0.0963,0.049,-0.0053,0.0217,0.0076,0.0031,-0.0133,-0.0257,-0.0237,0.174,0.0246,0.0034,-0.043,-0.0589,0.0519,0.0139,0.358,–
"Cc1c2c(nn1C)CSCc1cc(n(C)n1)CSc1cc(c3ccccc3c1)OCCCc1c(C(=O)O)n(C)c3c-2c(Cl)ccc13 [AZD5991] + CCN(CCO)CCCOc1ccc2c(Nc3cc(CC(=O)Nc4cccc(F)c4)[nH]n3)ncnc2c1 [AZD2811] (first compound max 1 µM, 7x7, partner max 1 µM)",-0.0061,0.0766,0.0047,0.0704,-0.0183,-0.0093,0.098,-0.0381,-0.0055,0.0228,0.081,0.0186,-0.0986,-0.0905,0.0523,0.0321,0.214,–
"CC1(C)CCC(CN2CCN(c3ccc(C(=O)NS(=O)(=O)c4ccc(NCC5CCOCC5)c([N+](=O)[O-])c4)c(Oc4cnc5[nH]ccc5c4)c3)CC2)=C(c2ccc(Cl)cc2)C1 [Venetoclax] + C[C@@H](Nc1cc(F)cc(F)c1)c1cc(C(=O)N(C)C)cc2c(=O)cc(N3CCOCC3)oc12 [AZD8186] (first compound max 1 µM, 7x7, partner max 3 µM)",-0.0083,0.018,-0.0203,-0.0199,-0.0047,-0.135,-0.0201,-0.0785,-0.0084,-0.0454,0.048,-0.0636,-0.0359,-0.0393,-0.001,-0.0165,0.326,–
"CN(C)CCCOc1ccc(-c2ccc3ncc4c(c3c2)n(C2CCOCC2)c(=O)n4C)cn1 [AZD0156] + CCN(CCO)CCCOc1ccc2c(Nc3cc(CC(=O)Nc4cccc(F)c4)[nH]n3)ncnc2c1 [AZD2811] (first compound max 1 µM, 7x7, partner max 1 µM)",0.0512,-0.0053,0.0049,0.0219,-0.0301,-0.0183,0.0538,-0.0376,-0.0626,0.0495,-0.0021,-0.0079,-0.0457,-0.0322,0.0096,0.0186,0.0787,–
"C[C@@H]1COCCN1c1cc(C2([S@](C)(=N)=O)CC2)nc(-c2ccnc3[nH]ccc23)n1 [AZD6738] + O=C(c1cc(Cc2n[nH]c(=O)c3ccccc23)ccc1F)N1CCN(C(=O)C2CC2)CC1 [Olaparib] (first compound max 10 µM, 7x7, partner max 10 µM)",-0.0365,0.0581,-0.0088,0.0898,-0.0433,0.0009,-0.021,-0.0042,-0.0324,-0.0552,0.021,0.047,-0.0435,–,-0.0892,0.0457,0.215,–
"CN(CCO)CC[C@H](CSc1ccccc1)Nc1ccc(S(=O)(=O)NC(=O)c2ccc(N3CCC([C@@H](O)c4ccccc4-c4ccc(Cl)cc4)CC3)cc2)cc1S(=O)(=O)C(F)(F)F [AZD4320] + C1CN(CCC1(C(=O)N[C@@H](CCO)C2=CC=C(C=C2)Cl)N)C3=NC=NC4=C3C=CN4 [Capivasertib] (first compound max 1 µM, 7x7, partner max 3 µM)",0.0024,0.0513,-0.0459,0.0075,0.0298,-0.0214,-0.07,0.0311,-0.0454,0.0106,-0.0306,-0.0785,-0.0378,-0.0497,0.0659,-0.0681,0.486,–
"Cc1c2c(nn1C)CSCc1cc(n(C)n1)CSc1cc(c3ccccc3c1)OCCCc1c(C(=O)O)n(C)c3c-2c(Cl)ccc13 [AZD5991] + CN(C)CCCOc1ccc(-c2ccc3ncc4c(c3c2)n(C2CCOCC2)c(=O)n4C)cn1 [AZD0156] (first compound max 1 µM, 7x7, partner max 1 µM)",-0.0177,0.0136,-0.0241,-0.0123,–,0.0009,-0.0403,-0.0357,0.0113,0.0046,0.0172,–,-0.0139,-0.0212,0.0235,-0.028,0.284,–
"Cc1c2c(nn1C)CSCc1cc(n(C)n1)CSc1cc(c3ccccc3c1)OCCCc1c(C(=O)O)n(C)c3c-2c(Cl)ccc13 [AZD5991] + Cc1cc2ncnn2cc1Nc1ncc2c(n1)n(C1CCOCC1)c(=O)n2C [AZD7648] (first compound max 1 µM, 7x7, partner max 10 µM)",–,-0.0227,-0.104,-0.0697,-0.0242,-0.0449,-0.0227,-0.059,-0.0432,-0.0046,-0.029,-0.0265,-0.0645,-0.015,0.0345,-0.0058,0.255,–
"COc1nnc2ccc(N3CCC(c4ccc(OCCN5CCN(C)C(=O)[C@H]5C)cc4)CC3)nn12 [AZD5153] + CCN(CCO)CCCOc1ccc2c(Nc3cc(CC(=O)Nc4cccc(F)c4)[nH]n3)ncnc2c1 [AZD2811] (first compound max 1 µM, 7x7, partner max 1 µM)",-0.0195,-0.042,-0.005,-0.0385,-0.0388,-0.0364,-0.0258,-0.0034,–,0.0124,-0.0547,-0.037,-0.0092,-0.0452,-0.0259,0.0096,–,-0.0626
"Cn1cnc2c(F)c(Nc3ccc(Br)cc3Cl)c(C(=O)NOCCO)cc21 [Selumetinib] + CCN(CCO)CCCOc1ccc2c(Nc3cc(CC(=O)Nc4cccc(F)c4)[nH]n3)ncnc2c1 [AZD2811] (first compound max 10 µM, 7x7, partner max 1 µM)",-0.0367,-0.0121,0.0012,0.0056,-0.0127,-0.0439,0.0645,-0.0073,–,0.0002,0.0116,-0.0494,0.0147,0.0162,-0.0194,0.045,–,-0.0289
